Reference: patent US20220402916A1, “SMALL MOLECULE INHIBITORS OF KRAS G12C MUTANT” (Merck Sharp & Dohme Corp., priority 2019, published 2022)

Assays:
[1] = molecular target: T1, Biotinylated KRAS G12C protein (Homo sapiens, UniProt P01116, C118S/C51S/C80L/G12C); experiment: SOS-catalyzed nucleotide exchange assay; assay type: biochemical; conditions: apparent potency; preincubation time of 60 minutes prior to addition of SOS
T1 construct: 183 amino acids; biotin on K10

[2] = test system: NCI-H358 cells; experiment: Cellular phospho-ERK assay; assay type: cell-based; conditions: Homo sapiens, NCI-H358, 2 h, NCI-H358 cells; 2 hour incubation; ratio of p-Erk vs total Erk; read-out: IC50
In short: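 15,000 cells/well seeded overnight, then dose-response compound treatment for 2 h at 37 °C in RPMI medium. Lysed and read by AlphaLISA SureFire Ultra multiplex; p-ERK/total ERK ratio as readout, IC50 from 4-parameter logistic fit.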

T1 sequence (P01116 with tags, fused parts or gaps isoform P01116-2 G12C/C51S/C80L/C118S): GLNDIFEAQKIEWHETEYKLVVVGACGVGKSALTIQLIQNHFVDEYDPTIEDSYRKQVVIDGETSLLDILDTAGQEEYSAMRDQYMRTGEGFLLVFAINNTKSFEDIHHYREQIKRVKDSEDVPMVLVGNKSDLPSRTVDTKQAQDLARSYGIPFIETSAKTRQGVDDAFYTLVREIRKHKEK

Row | Compound | IC50 [1] | IC50 [2]
1 | C=CC(=O)N1CCN(c2cc(C(=O)NCCC3(N)CCCCC3)nc3c2CCN(c2cccc4cccc(C)c24)C3)C[C@@H]1CC#N [Compound 92, (S)-4-(4-acryloyl-3-(cyanomethyl)piperazin-1-yl)-N-(2-(1-aminocyclohexyl)ethyl)-7-(8-methylnaphthalen-1-yl)-5,6,7,8-tetrahydro-1,7-naphthyridine-2-carboxamide] | 20 nM | 7200 nM
2 | C=CC(=O)N1CCN(c2cc(C(=O)Nc3ccccc3N3CCNCC3)nc3c2CCN(c2cccc4cccc(C)c24)C3)C[C@@H]1CC#N [Compound 93, (S)-4-(4-acryloyl-3-(cyanomethyl)piperazin-1-yl)-7-(8-methylnaphthalen-1-yl)-N-(2-(piperazin-1-yl)phenyl)-5,6,7,8-tetrahydro-1,7-naphthyridine-2-carboxamide] | 1840 nM | 24400 nM
3 | C=CC(=O)N1CCN(c2cc(C(=O)Nc3ccccc3CN)nc3c2CCN(c2cccc4cccc(C)c24)C3)C[C@@H]1CC#N [Compound 94, (S)-4-(4-acryloyl-3-(cyanomethyl)piperazin-1-yl)-N-(2-(aminomethyl)phenyl)-7-(8-methylnaphthalen-1-yl)-5,6,7,8-tetrahydro-1,7-naphthyridine-2-carboxamide] | 12 nM | 6630 nM
4 | C=CC(=O)N1CCN(c2cc(C(=O)N[C@H]3CC[C@@H](NC)CC3)nc3c2CCN(c2cccc4cccc(C)c24)C3)C[C@@H]1CC#N [Compound 96, 4-((S)-4-acryloyl-3-(cyanomethyl)piperazin-1-yl)-N-(cis-4-(methylamino)cyclohexyl)-7-(8-methylnaphthalen-1-yl)-5,6,7,8-tetrahydro-1,7-naphthyridine-2-carboxamide] | 56 nM | 5470 nM
5 | C=CC(=O)N1CCN(c2cc(C(=O)NC[C@@H]3CCCN3)nc3c2CCN(c2cccc4cccc(C)c24)C3)C[C@@H]1CC#N [Compound 97, 4-((S)-4-acryloyl-3-(cyanomethyl)piperazin-1-yl)-7-(8-methylnaphthalen-1-yl)-N-(((S)-pyrrolidin-2-yl)methyl)-5,6,7,8-tetrahydro-1,7-naphthyridine-2-carboxamide] | 15 nM | 2480 nM
6 | C=CC(=O)N1CCN(c2cc(C(=O)NC[C@H]3CCCN3)nc3c2CCN(c2cccc4cccc(C)c24)C3)C[C@@H]1CC#N [Compound 98, 4-((S)-4-acryloyl-3-(cyanomethyl)piperazin-1-yl)-7-(8-methylnaphthalen-1-yl)-N-(((R)-pyrrolidin-2-yl)methyl)-5,6,7,8-tetrahydro-1,7-naphthyridine-2-carboxamide] | 6.2 nM | 1040 nM
7 | C=CC(=O)N1CCN(c2cc(C(=O)NC3(CC#N)CNC3)nc3c2CCN(c2cccc4cccc(C)c24)C3)C[C@@H]1CC#N [Compound 100, (S)-4-(4-acryloyl-3-(cyanomethyl)piperazin-1-yl)-N-(3-(cyanomethyl)azetidin-3-yl)-7-(8-methylnaphthalen-1-yl)-5,6,7,8-tetrahydro-1,7-naphthyridine-2-carboxamide] | 22 nM | 5880 nM
8 | C=CC(=O)N1CCN(c2cc(C(=O)N[C@H]3CNCC[C@H]3F)nc3c2CCN(c2cccc4cccc(C)c24)C3)C[C@@H]1CC#N [Compound 103, 4-((S)-4-acryloyl-3-(cyanomethyl)piperazin-1-yl)-N-((3S,4R)-4-fluoropiperidin-3-yl)-7-(8-methylnaphthalen-1-yl)-5,6,7,8-tetrahydro-1,7-naphthyridine-2-carboxamide] | 26 nM | 14900 nM
9 | C=CC(=O)N1CCN(c2cc(C(=O)NCC[C@H]3CCCN3)nc3c2CCN(c2cccc4cccc(C)c24)C3)C[C@@H]1CC#N [Compound 104, 4-((S)-4-acryloyl-3-(cyanomethyl)piperazin-1-yl)-7-(8-methylnaphthalen-1-yl)-N-(2-((R)-pyrrolidin-2-yl)ethyl)-5,6,7,8-tetrahydro-1,7-naphthyridine-2-carboxamide] | 12 nM | 4900 nM
10 | C=CC(=O)N1CCN(c2cc(C(=O)NC[C@]3(F)CCCNC3)nc3c2CCN(c2cccc4cccc(C)c24)C3)C[C@@H]1CC#N [Compound 107, 4-((S)-4-acryloyl-3-(cyanomethyl)piperazin-1-yl)-N-(((S)-3-fluoropiperidin-3-yl)methyl)-7-(8-methylnaphthalen-1-yl)-5,6,7,8-tetrahydro-1,7-naphthyridine-2-carboxamide] | 54 nM | 7350 nM
